Experimental data from article PMC3515623, “WIKI4, a Novel Inhibitor of Tankyrase and Wnt/ß-Catenin Signaling” (PLoS ONE, 2012).

Target: T1, TNKS2 (Homo sapiens, UniProt Q9H2K2)
T1 construct: Recombinant GST-TNKS2
T1 sequence (Q9H2K2 1-1166): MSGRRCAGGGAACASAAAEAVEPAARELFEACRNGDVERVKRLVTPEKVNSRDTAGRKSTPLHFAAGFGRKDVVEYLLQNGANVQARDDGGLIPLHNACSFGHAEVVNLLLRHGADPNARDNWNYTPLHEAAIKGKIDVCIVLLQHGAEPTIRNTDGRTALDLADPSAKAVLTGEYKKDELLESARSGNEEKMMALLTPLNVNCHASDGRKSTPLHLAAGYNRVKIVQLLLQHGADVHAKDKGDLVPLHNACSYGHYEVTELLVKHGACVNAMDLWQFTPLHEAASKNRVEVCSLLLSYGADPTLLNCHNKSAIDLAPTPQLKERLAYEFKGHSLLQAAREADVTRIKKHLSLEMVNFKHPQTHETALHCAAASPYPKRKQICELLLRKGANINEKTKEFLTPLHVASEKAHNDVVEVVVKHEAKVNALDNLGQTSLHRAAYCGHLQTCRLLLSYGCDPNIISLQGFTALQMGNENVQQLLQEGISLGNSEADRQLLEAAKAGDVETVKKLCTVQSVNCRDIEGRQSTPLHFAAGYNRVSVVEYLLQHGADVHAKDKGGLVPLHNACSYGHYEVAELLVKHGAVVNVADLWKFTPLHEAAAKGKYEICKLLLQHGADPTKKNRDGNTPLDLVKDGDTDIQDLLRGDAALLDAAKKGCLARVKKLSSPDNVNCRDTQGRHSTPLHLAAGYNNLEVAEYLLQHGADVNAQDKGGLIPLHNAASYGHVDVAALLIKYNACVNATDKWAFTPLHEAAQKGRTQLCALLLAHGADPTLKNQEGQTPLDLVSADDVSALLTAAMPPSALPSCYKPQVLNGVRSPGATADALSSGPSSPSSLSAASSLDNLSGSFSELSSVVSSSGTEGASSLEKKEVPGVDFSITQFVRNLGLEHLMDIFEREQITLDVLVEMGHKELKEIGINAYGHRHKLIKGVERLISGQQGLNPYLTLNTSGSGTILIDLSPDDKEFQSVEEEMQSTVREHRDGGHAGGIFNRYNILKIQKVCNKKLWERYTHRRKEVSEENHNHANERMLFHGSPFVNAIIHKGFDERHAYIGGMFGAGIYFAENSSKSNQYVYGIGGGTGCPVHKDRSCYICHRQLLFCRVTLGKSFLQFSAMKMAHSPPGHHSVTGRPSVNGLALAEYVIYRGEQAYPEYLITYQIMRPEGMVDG
Assay: in vitro auto-ADP-ribosylation assay with recombinant GST-TNKS2, biotinylated substrate, chemiluminescent detection
Type: biochemical

Question: With `COc1ccc(-n2c(SCCCN3C(=O)c4cccc5cccc(c45)C3=O)nnc2-c2ccncc2)cc1` [WIKI4] as the molecule, how does the IC50 read?
Answer: The IC50 was ~15 nM.
